The record followed here is paper PMC12472888 (Molecules, 2025).

What all share (format): biochemical
For assay [1], the target named is T1, lipoxygenase type I-B from soybean (Glycine max, UniProt P08170).
T1 construct: gene LOX1.1; commercial native soybean enzyme (Sigma type I-B), full length
T1 sequence (P08170 1-839): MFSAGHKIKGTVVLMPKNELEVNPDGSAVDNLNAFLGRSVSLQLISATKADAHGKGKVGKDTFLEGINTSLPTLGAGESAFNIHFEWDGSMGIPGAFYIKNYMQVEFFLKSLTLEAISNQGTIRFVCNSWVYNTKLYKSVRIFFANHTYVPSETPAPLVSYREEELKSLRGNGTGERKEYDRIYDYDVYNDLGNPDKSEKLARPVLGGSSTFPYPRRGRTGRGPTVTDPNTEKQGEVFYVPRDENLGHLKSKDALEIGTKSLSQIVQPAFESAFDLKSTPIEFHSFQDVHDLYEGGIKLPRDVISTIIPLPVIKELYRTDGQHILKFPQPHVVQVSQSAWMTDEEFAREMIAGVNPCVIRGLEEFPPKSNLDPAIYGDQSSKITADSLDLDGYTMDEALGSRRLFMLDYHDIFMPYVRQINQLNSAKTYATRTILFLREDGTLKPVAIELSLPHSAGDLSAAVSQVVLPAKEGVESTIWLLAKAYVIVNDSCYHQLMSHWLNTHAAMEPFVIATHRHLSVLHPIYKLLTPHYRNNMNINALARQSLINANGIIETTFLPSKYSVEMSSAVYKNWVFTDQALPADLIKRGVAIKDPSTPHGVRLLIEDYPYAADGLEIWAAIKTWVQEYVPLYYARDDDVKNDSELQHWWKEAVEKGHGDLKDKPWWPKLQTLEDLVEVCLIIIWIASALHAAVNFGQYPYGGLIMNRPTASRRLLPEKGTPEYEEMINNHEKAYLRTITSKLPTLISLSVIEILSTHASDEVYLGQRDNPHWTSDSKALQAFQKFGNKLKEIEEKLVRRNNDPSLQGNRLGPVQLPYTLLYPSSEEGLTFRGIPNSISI
The assay is described as follows: UV absorbance at […] nm, linoleate oxidation.

In a further assay the target is T2, ovine COX-1 (Ovis aries, UniProt P05979).
T2 construct: gene PTGS1; homodimer
T2 sequence (P05979 25-600): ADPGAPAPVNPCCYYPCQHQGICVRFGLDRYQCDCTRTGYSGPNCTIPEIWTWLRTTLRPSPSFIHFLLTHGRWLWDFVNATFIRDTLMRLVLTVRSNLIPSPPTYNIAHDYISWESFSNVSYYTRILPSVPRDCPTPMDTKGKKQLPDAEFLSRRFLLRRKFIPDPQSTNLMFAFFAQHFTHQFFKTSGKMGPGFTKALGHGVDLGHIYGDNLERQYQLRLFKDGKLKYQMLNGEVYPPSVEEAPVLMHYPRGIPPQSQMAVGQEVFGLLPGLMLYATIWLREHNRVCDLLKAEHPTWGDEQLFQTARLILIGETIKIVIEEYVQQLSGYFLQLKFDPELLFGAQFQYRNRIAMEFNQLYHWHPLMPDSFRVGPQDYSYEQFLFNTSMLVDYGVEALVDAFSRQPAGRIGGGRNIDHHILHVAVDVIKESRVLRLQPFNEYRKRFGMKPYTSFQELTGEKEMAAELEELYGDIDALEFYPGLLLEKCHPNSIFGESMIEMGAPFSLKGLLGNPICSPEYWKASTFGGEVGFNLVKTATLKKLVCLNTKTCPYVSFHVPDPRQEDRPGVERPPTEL
The assay is described as follows: Cayman COX inhibitor screening kit, prostanoid enzyme immunoassay. From the text: Cayman COX inhibitor screening kit, prostanoid enzyme immunoassay on ovine COX-1

The target in the next assay is T3, human recombinant COX-2 (Homo sapiens, UniProt P35354).
T3 construct: gene PTGS2; homodimer; docking used mouse COX-2 (not this entry)
T3 sequence (P35354 18-604): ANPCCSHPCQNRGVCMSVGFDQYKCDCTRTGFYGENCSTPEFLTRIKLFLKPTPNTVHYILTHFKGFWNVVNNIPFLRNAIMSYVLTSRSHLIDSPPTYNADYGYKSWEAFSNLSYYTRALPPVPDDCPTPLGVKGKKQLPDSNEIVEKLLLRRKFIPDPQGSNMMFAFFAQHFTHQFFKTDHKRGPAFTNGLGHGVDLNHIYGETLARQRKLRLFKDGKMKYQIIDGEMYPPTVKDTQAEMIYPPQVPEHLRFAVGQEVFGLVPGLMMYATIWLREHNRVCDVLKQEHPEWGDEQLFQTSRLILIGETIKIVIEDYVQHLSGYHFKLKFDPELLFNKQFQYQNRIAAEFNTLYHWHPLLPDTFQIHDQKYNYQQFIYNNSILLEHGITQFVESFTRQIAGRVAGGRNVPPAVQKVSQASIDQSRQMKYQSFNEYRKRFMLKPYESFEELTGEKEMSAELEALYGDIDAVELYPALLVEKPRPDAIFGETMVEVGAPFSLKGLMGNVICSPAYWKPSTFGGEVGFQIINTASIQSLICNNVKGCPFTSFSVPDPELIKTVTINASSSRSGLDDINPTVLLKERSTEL
The description is as above. The text has this: Cayman COX inhibitor screening kit, prostanoid enzyme immunoassay on human recombinant COX-2

In general, IC50 refers to the concentration at which inhibition is half-maximal. Low readings indicate higher potency, high ones lower potency. `COc1ccc2cc([C@H](C)C(=O)NCCC(=O)OCCO[N+](=O)[O-])ccc2c1` [compound 7, 2-(Nitrooxy)ethyl-3-(2-(6-methoxynaphthalen-2-yl)propanamido)propanoate] had an IC50 in assay [1] of 51 µM.
Usually inhibition stands for the change of the read-out against control, counted positive when it falls. `COc1ccc2cc([C@H](C)C(=O)NCCC(=O)OCCO)ccc2c1` [compound 9, 2-Hydroxyethyl 3-(2-(6-methoxynaphthalen-2-yl)propanamido)propanoate] yielded an inhibition at 0.05 µM against ovine COX-1 of 73%.
For the compound `CC(C)Cc1ccc(C(C)C(=O)NCCC(=O)OCCO[N+](=O)[O-])cc1` (racemic) [compound 5, 2-(Nitrooxy)ethyl-3-(2-(4-isobutylphenyl)propanamido)propanoate], the values for the inhibition at 0.05 µM against ovine COX-1 and at human recombinant COX-2 were 67% and 95%, respectively. Further, the IC50 in assay [1] amounted to 78 µM.
`COc1ccc2cc([C@H](C)C(=O)N3CCC[C@H]3C(=O)OCCO[N+](=O)[O-])ccc2c1` [compound 8, 2-(Nitrooxy)ethyl-1-(2-(6-methoxynaphthalen-2-yl)propanoyl)pyrrolidine-2-carboxylate]: the IC50 in assay [1] is 184 µM.
On to `CC(C)Cc1ccc(C(C)C(=O)N2CCC[C@H]2C(=O)OCCO[N+](=O)[O-])cc1` (stereo partly shown) [compound 6, 2-(Nitrooxy)ethyl-1-(2-(4-isobutylphenyl)propanoyl)pyrrolidine-2-carboxylate], for which the IC50 in assay [1] worked out at 264 µM.
